Literature values as cited in patent publication US20060029556A1, “Aqueous-alcoholic depigmenting gels” (GALDERMA RESEARCH & DEVELOPMENT, S.N.C., priority 2002, published 2006).
Like-named read-outs stand apart in the source and are kept apart here.

Question: For `Oc1ccc(O)cc1` [hydroquinone], which incidence of irritation (hydroquinone concentration 10%) is on record?
Answer: relatively high

Question: And the incidence of irritation (hydroquinone concentration of 2%)?
Answer: virtually nonexistent

Question: What about the incidence of irritation (hydroquinone preparations with a 5% dose) of the same compound?
Answer: reduces greatly
